The text below walks through data of US11780826B2 (Amgen Inc., priority 2017, dated 2023).

The subject of the assay is Bovine cardiac myofibrils. Kind of assay: In vitro model of dose-dependent myofibril ATPase modulation (AC1.4, pyruvate kinase/lactate dehydrogenase-coupled ATPase assay at pCa25). The assay is classed as biochemical. The note with it: concentration at which ATPase activity was 1.4-fold higher than the bottom of the dose curve, mean of a minimum of two independent tests. In outline:
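Coupled-enzyme ATPase on bovine heart myofibrils, 1 mM ATP, EGTA/CaCl2 buffered; 340 nm readout.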

Turning to `O=C(N[C@@H](c1ccc(C(F)(F)F)cc1F)C1CC1)[C@H]1C[C@H]2C[C@H]2N1C(=O)c1cccc(S(=O)(=O)C2CC2)c1` [Example 211, (1R,3R,5R)-N-((R)-cyclopropyl(2-fluoro-4-(trifluoromethyl)phenyl)methyl)-2-(3-(cyclopropylsulfonyl)benzoyl)-2-azabicyclo[3.1.0]hexane-3-carboxamide], the AC1.4 was 0.4488 µM.
Turning to `CCS(=O)(=O)c1cccc(C(=O)N2CCC[C@@H]2C(=O)N[C@@H](c2ccc(C(F)(F)F)cc2F)C2CC2)c1` [Example 212, N-((R)-cyclopropyl(2-fluoro-4-(trifluoromethyl)phenyl)methyl)-1-(3-(ethylsulfonyl)benzoyl)-D-prolinamide], the AC1.4 came out at 0.4557 µM.
Take `CC(C)(C)c1cccc(C(=O)N2[C@@H](C(=O)N[C@@H](c3ccc(C(F)(F)F)cc3F)C3COC3)C[C@H]3C[C@H]32)c1` [Example 213, (1R,3R,5R)-N-((R)-(2-fluoro-4-(trifluoromethyl)phenyl)(3-oxetanyl)methyl)-2-(3-(2-methyl-2-propanyl)benzoyl)-2-azabicyclo[3.1.0]hexane-3-carboxamide]: the AC1.4 was found to be 0.4603 µM.
The compound `CS(=O)(=O)c1ccc(C(=O)N2CCC[C@@H]2C(=O)N[C@@H](c2cc(F)c(Cl)cc2F)C2CC2)cn1` [Example 215, N-((R)-(4-chloro-2,5-difluorophenyl)(cyclopropyl)methyl)-1-((6-(methylsulfonyl)-3-pyridinyl)carbonyl)-D-prolinamide] yielded an AC1.4 of 0.4666 µM.
In turn, `N#CC1CN(S(=O)(=O)N2CCC[C@H](C(=O)N3C[C@H](F)C[C@@H]3C(=O)NCc3ccc(C(F)(F)F)cc3)C2)C1` [Example 216, (4R)-1-(((3S)-1-((3-cyano-1-azetidinyl)sulfonyl)-3-piperidinyl)carbonyl)-4-fluoro-N-(4-(trifluoromethyl)benzyl)-D-prolinamide] yielded an AC1.4 of 0.4746 µM.
Compound `CCNc1ccccc1C(=O)N1[C@@H](C(=O)N[C@@H](c2ccc(C(F)(F)F)cc2F)C2COC2)C[C@H]2C[C@H]21` [Example 217, (1R,3R,5R)-2-(2-(ethylamrno)benzoyl)-N-((R)-(2-fluoro-4-(trifluoromethyl)phenyl)(3-oxetanyl)methyl)-2-azabicyclo[3.1.0]hexane-3-carboxamide] registered an AC1.4 of 0.4751 µM.
`CS(=O)(=O)c1cc(F)cc(C(=O)N2[C@@H](C(=O)N[C@@H](c3ccc(C(F)(F)F)cc3F)C3COC3)C[C@H]3C[C@H]32)c1` [Example 219, (1R,3R,5R)-2-(3-fluoro-5-(methylsulfonyl)benzoyl)-N-((R)-(2-fluoro-4-(trifluoromethyl)phenyl)(3-oxetanyl)methyl)-2-azabicyclo[3.1.0]hexane-3-carboxamide] displayed an AC1.4 of 0.4808 µM.
In turn, `CC(C)[C@H](NC(=O)[C@H]1CCCN1C(=O)c1cccc(S(=O)(=O)N2CC(C#N)C2)c1)c1ccc(C(F)(F)F)cc1F` [Example 220, 1-(3-((3-cyano-1-azetidinyl)sulfonyl)benzoyl)-N-((1S)-1-(2-fluoro-4-(trifluoromethyl)phenyl)-2-methylpropyl)-D-prolinamide] showed an AC1.4 of 0.4809 µM.
In turn, `N#CC1CN(S(=O)(=O)N2CCC[C@H](C(=O)N3CCC[C@@H]3C(=O)NCc3ccc(F)c(F)c3)C2)C1` [Example 221, 1-(((3S)-1-((3-cyano-1-azetidinyl)sulfonyl)-3-piperidinyl)carbonyl)-N-(3,4-difluorobenzyl)-D-prolinamide] had an AC1.4 of 0.4821 µM.
As for `CS(=O)(=O)c1ccnc(C(=O)N2CCC[C@@H]2C(=O)N[C@@H](c2cc(F)c(Cl)cc2F)C2CC2)c1` [Example 222, N-((R)-(4-chloro-2,5-difluorophenyl)(cyclopropyl)methyl)-1-((4-(methylsulfonyl)-2-pyridinyl)carbonyl)-D-prolinamide], the AC1.4 amounted to 0.4825 µM.
`O=C(N[C@@H](c1ccc(C(F)(F)F)cc1F)C1CC1)[C@H]1CCCN1C(=O)c1cccc(S(=O)(=O)C2CC2)c1` [Example 223, N-((R)-cyclopropyl(2-fluoro-4-(trifluoromethyl)phenyl)methyl)-1-(3-(cyclopropylsulfonyl)benzoyl)-D-prolinamide] returned an AC1.4 of 0.4842 µM.
Turning to `NS(=O)(=O)c1cccc(C(=O)N2CCC[C@@H]2C(=O)N[C@@H](c2cc(F)c(Cl)cc2F)C2CC2)c1` [Example 224, N-((R)-(4-chloro-2,5-difluorophenyl)(cyclopropyl)methyl)-1-(3-sulfamoylbenzoyl)-D-prolinamide], the AC1.4 worked out at 0.485 µM.
`O=C(N[C@@H](c1cc(F)c(C(F)(F)F)cc1F)C1CC1)[C@H]1C[C@H]2C[C@H]2N1C(=O)c1ccnc(C(F)(F)F)c1` [Example 225, (1R,3R,5R)-N-((R)-cyclopropyl(2,5-difluoro-4-(trifluoromethyl)phenyl)methyl)-2-((2-(trifluoromethyl)-4-pyridinyl)carbonyl)-2-azabicyclo[3.1.0]hexane-3-carboxamide] showed an AC1.4 of 0.4889 µM.
On to `O=C(NCc1ccc(C(F)(F)F)cc1)[C@H]1CCCN1C(=O)[C@H]1CCCN(S(=O)(=O)N2CC(c3ccon3)C2)C1` [Example 227, 1-(((3S)-1-((3-(1,2-oxazol-3-yl)-1-azetidinyl)sulfonyl)-3-piperidinyl)carbonyl)-N-(4-(trifluoromethyl)benzyl)-D-prolinamide], for which the AC1.4 came out at 0.4927 µM.
As to `CNc1ccc(S(C)(=O)=O)cc1C(=O)N1CCC[C@@H]1C(=O)N[C@@H](c1ccc(C(F)(F)F)cc1F)C1CC1` [Example 228, N-((R)-cyclopropyl(2-fluoro-4-(trifluoromethyl)phenyl)methyl)-1-(2-(methylamino)-5-(methylsulfonyl)benzoyl)-D-prolinamide], the AC1.4 came to 0.4974 µM.
Consider `CC(C)[C@H](NC(=O)[C@H]1CCCN1C(=O)[C@H]1CCCN(S(=O)(=O)N2CC(C#N)C2)C1)c1ccc(C(F)(F)F)cc1F` [Example 229, 1-(((3S)-1-((3-cyano-1-azetidinyl)sulfonyl)-3-piperidinyl)carbonyl)-N-((1S)-1-(2-fluoro-4-(trifluoromethyl)phenyl)-2-methylpropyl)-D-prolinamide], for which the AC1.4 turned out to be 0.5053 µM.
`Cc1cc(C(=O)N2[C@@H](C(=O)N[C@@H](c3ccc(C(F)(F)F)cc3F)C3CC3)C[C@H]3C[C@H]32)c(NC2CCC2)cn1` [Example 230, (1R,3R,5R)-2-((5-(cyclobutylamino)-2-methyl-4-pyridinyl)carbonyl)-N-((R)-cyclopropyl(2-fluoro-4-(trifluoromethyl)phenyl)methyl)-2-azabicyclo[3.1.0]hexane-3-carboxamide] came in with an AC1.4 of 0.5074 µM.
Under `O=C(N[C@@H](c1cc(F)c(Cl)cc1F)C1CC1)[C@H]1C[C@H]2C[C@H]2N1C(=O)c1ccnc(C(F)(F)F)c1` [Example 231, (1R,3R,5R)-N-((R)-(4-chloro-2,5-difluorophenyl)(cyclopropyl)methyl)-2-((2-(trifluoromethyl)-4-pyridinyl)carbonyl)-2-azabicyclo[3.1.0]hexane-3-carboxamide] stands 0.5188 µM; under `CS(=O)(=O)c1cccc(C(=O)N2CCC[C@@H]2C(=O)N[C@@H](c2ccc(C(F)(F)F)cc2F)C2COC2)c1` [Example 232, N-((R)-(2-fluoro-4-(trifluoromethyl)phenyl)(3-oxetanyl)methyl)-1-(3-(methylsulfonyl)benzoyl)-D-prolinamide], 0.5201 µM; under `O=C(N[C@@H](c1cc(F)c(Cl)cc1F)C1COC1)[C@H]1C[C@H]2C[C@H]2N1C(=O)c1cc(C(F)(F)F)ccn1` [Example 233, (1R,3R,5R)-N-((R)-(4-chloro-2,5-difluorophenyl)(3-oxetanyl)methyl)-2-((4-(trifluoromethyl)-2-pyridinyl)carbonyl)-2-azabicyclo[3.1.0]hexane-3-carboxamide], 0.5241 µM.
Compound `CC1(C)CN(S(=O)(=O)c2cccc(C(=O)N3CCC[C@@H]3C(=O)NCc3ccc(C(F)(F)F)cc3)c2)C1` [Example 234, 1-((3-((3,3-dimethyl-1-azetidinyl)sulfonyl)phenyl)carbonyl)-N-(4-(trifluoromethyl)benzyl)-D-prolinamide] gave an AC1.4 of 0.5321 µM.
Under `CS(=O)(=O)c1cncc(C(=O)N2CC[C@H](C(F)(F)F)[C@H]2C(=O)N[C@@H](c2cc(F)c(C(F)(F)F)cc2F)C2CC2)c1` [Example 236, (3S)-N-((R)-cyclopropyl(2,5-difluoro-4-(trifluoromethyl)phenyl)methyl)-1-((5-(methylsulfonyl)-3-pyridinyl)carbonyl)-3-(trifluoromethyl)-L-prolinamide] stands 0.5579 µM; under `O=C(NCc1ccc(C(F)(F)F)cc1F)[C@H]1CCCN1C(=O)[C@H]1CCCN(S(=O)(=O)N2CC(OCCF)C2)C1` [Example 237, 1-(((3S)-1-((3-(2-fluoroethoxy)-1-azetidinyl)sulfonyl)-3-piperidinyl)carbonyl)-N-(2-fluoro-4-(trifluoromethyl)benzyl)-D-prolinamide], 0.5593 µM; under `O=C(NCc1ccc(Cl)c(F)c1)[C@H]1CCCN1C(=O)c1cccc(S(=O)(=O)N2CC(F)(F)C2)c1` [Example 238, N-(4-chloro-3-fluorobenzyl)-1-(3-((3,3-difluoro-1-azetidinyl)sulfonyl)benzoyl)-D-prolinamide], 0.5606 µM.
Regarding `N#CC1CN(S(=O)(=O)N2CCN[C@H](C(=O)N3CCC[C@@H]3C(=O)NCc3ccc(C(F)(F)F)cc3)C2)C1` [Example 239, 1-(((2S)-4-((3-cyano-1-azetidinyl)sulfonyl)-2-piperazinyl)carbonyl)-N-(4-(trifluoromethyl)benzyl)-D-prolinamide], the AC1.4 stood at 0.5676 µM.
`N#CC1CN(S(=O)(=O)N2CCC[C@H](C(=O)N3C[C@H](O)C[C@@H]3C(=O)NCc3ccc(C(F)(F)F)cc3)C2)C1` [Example 240, (2R,4R)-1-((S)-1-((3-cyanoazetidin-1-yl)sulfonyl)piperidine-3-carbonyl)-4-hydroxy-N-(4-(trifluoromethyl)benzyl)pyrrolidine-2-carboxamide] showed an AC1.4 of 0.5685 µM.
